In PMC6498537, “Biomimetic synthesis of the natural product salviadione and its hybrids: discovery of tissue-specific anti-inflammatory agents for acute lung injury” (Chemical Science, 2019):
pIC50: −log10 of the molar value. Like-named read-outs stand apart in the source and are kept apart here.

Tests used:
[1] = tested on: LPS-induced TNF-α release; assay: LPS-induced TNF-α release in mouse primary peritoneal macrophages (ELISA); assay type: cell-based; details: Peritoneal macrophage, LPS (0.5 μg/mL) 24 h, 30 min pretreatment, read-out: IC50 against the release of TNF-α
Procedure: (§1) Figure S3. Inhibitory activity of the benzo[def]carbazole-3,5-diones against LPS-induced TNF-α and IL-6 secretion in mouse peritoneal macrophages. Macrophages were plated at a density of 5 × 10^5/plate for overnight at 37 °C and in 5% CO2. Cells were pretreated with 5 or tanshinone analogues (10 μM) for 30 min, then treated with LPS (0.5 μg/mL) for 24 h. L6H21 (19) was used as a positive control. TNF-α and IL-6 levels in the culture medium were measured by ELISA and were normalized by the total protein level. The results were presented as the percent of LPS control. Each bar represents the mean ± SD of three independent experiments.
(§2) Statistical significance relative to the LPS group is indicated: ∗ , p < 0.05; ∗∗, p < 0.01.
(§3) (1 picture or pasted object on this page, not shown here)
(§4) Figure S5. […]
(§5) 30 min, then treated with LPS (0.5 μg/mL) for 24 h. IL-6 and TNF-α levels in the culture media were measured by ELISA and were normalized by the total protein. The results were expressed as the percent of LPS. […]
(§6) Determination of TNF-α and IL-6. The levels of TNF-α and IL-6 in medium, bronchoalveolar lavage fluid (BALF) and serum were determined with an ELISA kit (eBioScience, San Diego, CA) according to the manufacturer’s instructions. The total amount of the inflammatory factor in the medium was normalized to the total protein quantity of the viable cell pellets. […]

[2] = Preliminary pharmacokinetic parameters (p.o. and i.v.); assay type: in vivo; details: for MRT inf: read-out: MRTINF_obs
Procedure: Table S4. Preliminary Pharmacokinetic Parameters for Compound 15a a-c
T1/2 Tma Cmax AUC CL_obs MRTINF_obs Vss_obs F […]
aValues are the average of three runs. Vehicle: DMSO, Tween 80, normal saline. CL, clearance; Vss, volume of distribution; T1/2, half-life; Cmax, maximum concentration; Tmax, time of maximum concentration; MRT, mean residence time; AUC, area under the plasma concentration time curve; F, oral bioavailability. bDose: p.o. at 3.0 mg/kg; cDose: i.v. at 1.0

[3] = Tissue distribution after single intravenous administration; assay type: in vivo, SD rats; details: iv 2 mg kg^–1, rat
Procedure: Tissue Distribution Assay. Compound 15a (2 mg/kg) dissolved in PEG300/EtOH/NaCl(40/10/50, v/v/v)to a concentration of 0.4 mg/mL, and was […]
given to SD rats (Male, 180–220 g, three groups with three rats in each group) by intravenous administration. Blood samples and the important tissues including heart, liver, lung, kidney, and brain were collected at 0.25, 2 and 12 h after administration (anticoagulant: EDTA-Na2). For plasma samples, 250 μL of solvent of methanol: acetonitrile (1:1, v/v) with internal standard was added to 50 μL of plasma and vortexed thoroughly. For tissue samples, three times the weight of volume of PBS were added, then homogenized. The homogenates were precipitated by five times of methanol: acetonitrile (1:1, v/v) with internal standard. They were centrifuged for 5 min, and then 20 μL of the supernatant was mixed with 20 μL of water for analysis. Samples were analyzed by AB6500 triple quadrupole mass spectrometer (AB Sciex, USA). The ACQUITY UPLC BEH C18 (1.7 μm, 2.0 mm × 50 mm, Waters, USA) was used for the analysis. Gradient elution was applied consisting of ultrapure water containing 0.1% formic acid and acetonitrile containing 0.1% formic acid. […]

LPS-induced IL-6 release = LPS-induced IL-6 release in mouse primary peritoneal macrophages (ELISA); assay type: cell-based; details: Peritoneal macrophage, LPS (0.5 μg/mL) 24 h, 30 min pretreatment, read-out: IC50 against the release of IL-6
Procedure: as §1, §2, §3, §4, §5, §6

SMILES: Cc1coc2c1C(=O)c1c3c-2ccc2c3c(n1Cc1ccccc1)C(=O)CC2(C)C [Compound 15a]
- pIC50 [1]: 5.20
- Vss_obs ([2]; iv, 1.0 mg/kg): 5.98 L/kg
- AUC ([2]; plasma, iv, 1.0 mg/kg): 485 ng·h/mL
- half-life ([2]; plasma, iv, 1.0 mg/kg): 5 h
- clearance ([2]; plasma, iv, 1.0 mg/kg, read-out: CL_obs): 34.9 mL/min/kg
- MRT inf ([2]; plasma, iv, 1.0 mg/kg): 2.98 h
- AUC ([2]; plasma, po, 3.0 mg/kg): 426 ng·h/mL
- Cmax ([2]; plasma, po, 3.0 mg/kg): 81.2 ng/mL
- MRT inf ([2]; plasma, po, 3.0 mg/kg): 5.33 h
- F (oral bioavailability) ([2]; po 3.0 mg/kg vs iv 1.0 mg/kg): 30.2%
- T1/2 ([2]; po, 3.0 mg/kg): 4.05 h
- Tma ([2]; po, 3.0 mg/kg): 1.83 h
- Concentration in brain ([3]; 0.25 h): 224 ng g^–1
- Concentration in heart ([3]; 0.25 h): 992 ng g^–1
- Concentration in heart plasma ([3]; 0.25 h): 144 ng mL^–1
- Concentration in kidney ([3]; 0.25 h): 806 ng g^–1
- Concentration in liver ([3]; 0.25 h): 2557 ng g^–1
- Concentration in lung ([3]; 0.25 h): 3320 ng g^–1
- Concentration in portal vein plasma ([3]; 0.25 h): 142 ng mL^–1
- Concentration in brain ([3]; 2 h): 93.9 ng g^–1
- Concentration in heart ([3]; 2 h): 223 ng g^–1
- Concentration in heart plasma ([3]; 2 h): 31.2 ng mL^–1
- Concentration in kidney ([3]; 2 h): 187 ng g^–1
- Concentration in liver ([3]; 2 h): 518 ng g^–1
- Concentration in lung ([3]; 2 h): 847 ng g^–1
- Concentration in portal vein plasma ([3]; 2 h): 33.1 ng mL^–1
- Concentration in brain ([3]; 12 h): 3.11 ng g^–1
- Concentration in heart ([3]; 12 h): 19.8 ng g^–1
- Concentration in heart plasma ([3]; 12 h): 1.90 ng mL^–1
- Concentration in kidney ([3]; 12 h): 33.0 ng g^–1
- Concentration in liver ([3]; 12 h): 57.3 ng g^–1
- Concentration in lung ([3]; 12 h): 633 ng g^–1
- Concentration in portal vein plasma ([3]; 12 h): 2.04 ng mL^–1
- lung drug concentration relative to other tissues ([3]; 12 h): 11 to 300 times
- pIC50 (LPS-induced IL-6 release): 5.79
